From PubChem BioAssay AID2305 (GlaxoSmithKline (GSK), 2010)

Each compound was assayed on P. falciparum 3D7 growth, pLDH absorbance (assay: P. falciparum 3D7 growth inhibition, dose response, strain 3D7 (AID 2305)).

SMILES	IC50 [nM]
CC(C)CNCc1cccc(-c2ccccc2CN(C(=O)NCCc2ccccc2)C2CCN(Cc3ccccc3)CC2)c1	1170
c1ccc(CCNc2ccnc(Nc3ccc4cn[nH]c4c3)n2)cc1	470
CCN(CC)CCN(Cc1ccc(-c2ccc(C(F)(F)F)cc2)cc1)C(=O)c1c[nH]c2ccc(Br)cc12	950
CCc1ccc(CN2CCC(NC(=O)c3ccc(-c4ccccc4F)s3)CC2)cc1	1490
CCOc1cc(C(=O)Nc2ccc3nc(N(CC)CC)cc(C)c3c2)cc(OCC)c1OCC	700
CCc1c[nH]c2c(N3CCCC3=O)cc(C(=O)N[C@@H](Cc3ccccc3)[C@H](O)CNC(C)(C)CCCC(C)C)cc12	510
COc1ccc(S(=O)(=O)NC2CCN(c3ccc(C(F)(F)F)cc3NC(=O)OCC(C)C)CC2)cc1	1220
NC(N)=Nc1ccc(OCCCCCOc2ccc(N=C(N)N)c(Cl)c2)cc1Cl	860
CN(C)CCOc1ccnc2ccc(NC(=O)Cc3ccc(-c4ccncc4)c4ccccc34)cc12	280
CCNc1cc(C(=O)N[C@@H](Cc2ccccc2)[C@H](O)CNC2CCCC2)cc(N2CCCC2=O)c1	80
COc1ccccc1-c1csc(C(=O)NCC2CCN(Cc3ccc(C(C)C)cc3)C2)c1 (stereo not drawn)	1350
CS(=O)(=O)Nc1cccc(-c2cnc3[nH]cc(-c4ccc(CN)cc4)c3c2)c1	990
CCN(CC)CCN(Cc1ccc(-c2ccc(C(F)(F)F)cc2)cc1)C(=O)Cn1c(/C=C/c2ccco2)nc(=O)c2ccccc21	870
Cc1[nH]c(C)c(C(F)(F)F)c(=O)c1-c1ccc(Oc2ccc(OC(F)(F)F)cc2)cc1	170
Cc1sc2cc(Cl)cc(Cl)c2c1S(=O)(=O)Nc1ccc2nccc(N3CCNCC3)c2c1	120
CCCCCCCc1ccc(-c2c(C)[nH]c(C)c(Cl)c2=O)cn1	360
O=c1cc(NCCCNCc2ccc(Cl)c(Cl)c2)[nH]c2cc(F)cc(F)c12	680
CN1CCC(N2CCN(Cc3cccc(-c4ccc(-c5nc6ccc(F)cc6[nH]5)cc4)c3)CC2)CC1	110
CCN(CC)CCN(CCN(CC)CC)c1ccc(-c2nc3cc(Cl)c(Cl)cc3[nH]2)cc1	780
Cc1cc(NCCC(=O)Nc2ccccc2)nc(NCCc2ccc(F)cc2)n1	1130
Brc1ccc(Nc2nc(NCc3ccccc3)c3ccccc3n2)cc1	340
COc1cc2nc(Nc3ccc4c(cnn4Cc4ccccc4)c3)nc(Nc3ccc4c(cnn4Cc4ccccc4)c3)c2cc1OC	190
O=C(Nc1cccc(CN2CCCN(Cc3cccc(O)c3)CC2)c1)c1ccc(Cl)c(Cl)c1	660
O=S(=O)(c1cc(Cl)c(Cl)cc1Cl)N1CCCCC(c2ccc(C(F)(F)F)cc2)=N1	200
CN1CCCC(CN2CCN(Cc3ccc(-c4ccc(-c5nc6ccc(F)cc6[nH]5)s4)cc3)CC2)C1 (stereo not drawn)	130

SMILES	IC50 [nM]
COc1ccc2nccc([C@@H](O)CN3CCC(NCc4cc5c(Cl)cc(Cl)cc5[nH]4)CC3)c2c1	60
COCCN1CCC(N(CC2(O)CCN(c3ccc(C(F)(F)F)cc3)CC2)C(=O)Cn2c(SCc3cccc(F)c3F)cc(=O)c3ccccc32)CC1	810
NC(=NCCc1ccc(Cl)c(Cl)c1)c1ccc2ccccc2c1	510
CCC(C)(C)c1ccc(N2C(N)=NC(N)=NC2(C)C)cc1	10
CC(=O)c1ccc(NC(=O)C2c3ccccc3C(=O)N(CC(C)C)C2c2cccs2)cc1 (stereo not drawn)	1320
O=C(NC1CC1)c1ccc(N2CCOc3ccc(Cl)cc32)s1	800
Cc1cccc(C(=O)Nc2ccc(N3CCCN(Cc4cccc(O)c4)CC3)cc2)c1	1420
c1ccc(-n2ncc(CNCc3ccc(-c4cccc(-c5nc6ccccc6[nH]5)c4)cc3)n2)cc1	1230
NCc1ccc(-c2cccc(CNC3CCN(Cc4ccccc4)CC3)c2)cc1	670
Cc1cc(NC(=O)Nc2ccc3ccn(C)c3c2)c2ccccc2n1	210
COc1ccc(CN2CCC(C(=O)Nc3cccc(-c4cccc(Cl)c4)c3)CC2)cc1O	970
CC[C@H](C)CNC(=O)c1cncc(-c2cccc(CNC3Cc4ccccc4C3)c2)c1	590
NCc1cccc(-c2cccc(CNC3CCN(Cc4ccccc4)CC3)c2)c1	720
Cc1ccoc1C(=O)Nc1cccc(-c2cccc(-c3nc4ccccc4[nH]3)c2)c1	1220
O=C(c1cc(OC(F)(F)F)ccc1O)N1CCN(c2ccccc2)CC1	1050
O=C(Nc1cccc(C(F)(F)F)c1)c1cc([N+](=O)[O-])cc2cn[nH]c12	990
Cc1nc2nc(N)nc(N)c2c(C)c1Cc1cccs1	780
CC(C)COc1ccc(Cl)cc1Cc1nc(-c2nc3ccc(CN(C)C)cc3[nH]2)co1	710
CC(C)CCN1CCCN(Cc2cccc(NC(=O)c3cc4ccccc4s3)c2)CC1	920
O=C(/C=C/c1ccc2ccccc2c1)NC1CCC(CN2CCC(c3c[nH]c4ccccc34)CC2)CC1 (stereo not drawn)	730
Cc1cc(N(C)CCCN(C)C)nc(Nc2ccc(Cl)cc2)n1	1020
CCCCN(Cc1cc(Cl)c(OCC)c(OC)c1)c1ccc(C(O)(C(F)(F)F)C(F)(F)F)cc1	910
O=C(NC1CC1)c1ccc(N2CCCCN2CCc2ccccc2)c(C(F)(F)F)c1	620
COc1ccc(C2CC(=O)C3=C(C2)NC(C)=C(C(=O)OC(C)C)C3c2ccc(O)cc2)cc1OC (stereo not drawn)	280
Cc1c2ccc(N(C)c3ccnc(Nc4ccc5c(c4)nc(NC(C)C)n5C)n3)cc2nn1C	160

SMILES	IC50 [nM]
CCN(CC)CCOc1ccc(N(Cc2ccc(C(C)(C)C)cc2)C(=O)c2ccc(Cc3ccccc3)cc2)cc1OC	770
CC(C)C[C@H](Nc1ccc(C#N)c2ccccc12)C(=O)NC(C)(C)C12CC3CC(CC(C3)C1)C2	920
CCc1cn2c3c(cc(C(=O)N[C@@H](Cc4cc(F)cc(F)c4)[C@H](O)CNC4CCOCC4)cc13)N(C)S(=O)(=O)CC2	30
COc1cccc(C(=O)[C@H]2C[C@@H]2CN(C)CCC(O)c2ccc(Cl)c(Cl)c2)c1 (stereo partly drawn)	760
COc1ccc2nccc(NC(=O)OC3CCC(NCc4ccc5c(n4)NC(=O)CS5)CC3)c2c1 (stereo not drawn)	920
COc1cc2c(cc1C(F)(F)F)N(C(=O)Nc1cc(F)cc(-c3cncnc3)c1)CC2	500
COc1cc2nc(Nc3ccc(N4CCOCC4)cc3)nc(N)c2cc1OC	870
CNC(=O)c1cnc(Nc2ccc(N3CCOCC3)cc2)nc1Nc1cccc(O)c1	810
COc1ccc(CN2CCC(CNCCc3ccccc3Cl)CC2)cc1	1110
Oc1ccc(CN2CCN(CCOC(c3ccc(F)cc3)c3ccc(F)cc3)CC2)cc1Cl	940
COc1cc(C(=O)NC2CCC(CN3CCC(c4c[nH]c5ccccc45)CC3)CC2)cc(Cl)n1 (stereo not drawn)	690
O=C(/C=C/c1ccc(Cl)c(Cl)c1)NCCCCCN1CCC(NC(=O)Nc2ccc([N+](=O)[O-])cc2)CC1	690
CC(CN(C)C)C(=O)Nc1cccc(-c2ccc(-c3nc4ccc(F)cc4[nH]3)cc2)c1 (stereo not drawn)	650
Cc1cc(N2CCCC2)nc(Nc2ccc(NC(=O)c3ccccc3F)cc2)n1	920
Cn1c(NC2=NC3(c4ccccn4)N=C(Nc4nc5ccccc5n4C)NC3(c3ccccn3)N2)nc2ccccc21 (stereo not drawn)	1040
COCC(=O)Nc1nc2ccccc2[nH]1	300
Clc1ccc(CNCC2CCN(CC3CCCCC3)CC2)cc1Cl	1000
COc1cc(C)c(C(O)CNC(C)CCc2ccccc2)cc1C (stereo not drawn)	730
Clc1cccc(CNC2CCN(CC3CCCCC3)CC2)c1	910
COc1ccc(-c2cnc(N)c(-c3nc4ccc(Br)cc4[nH]3)c2)cc1	1560
COc1ccc(C(=O)N[C@@H](CC(C)C)C(=O)NC2CC[C@@H](C)N(C(=O)Nc3ccc(Cl)cc3)CC2=O)cc1OCCN1CCOCC1 (stereo partly drawn)	150
COc1ccc2c(c1CCNCCCCNCCc1c(OC)ccc3c1CCCC3)CCCC2	380
CN1CCC(C(=O)Nc2ccc(-c3cccc(-c4nc5ccc(C(F)(F)F)cc5[nH]4)c3)cc2)CC1	580
CS(=O)(=O)c1ccc(-c2cnc(N)c(-c3ccc(O)cc3)c2)cc1	1360
c1ccc(Oc2ccc(Nc3ccnc(Nc4cccc(CNCCCN5CCOCC5)c4)n3)cc2)cc1	1040

SMILES	IC50 [nM]
OC(CNCc1ccccc1OCc1ccccc1)c1cccc(C(F)(F)F)c1 (stereo not drawn)	360
Cc1cccc(-c2nc(Nc3ccncc3)c3cc(N(C)C)ccc3n2)n1	710
Clc1ccc(-c2cc(-c3csc(Nc4ccncc4)n3)on2)cc1	130
COc1ccc(NC(=O)Nc2ccc(-c3ccncc3)c(C(F)(F)F)c2)cc1N1CCN(C)CC1	760
O=C(Nc1ccc(Cl)cc1)Nc1ccc2c(c1)N1CCN=C1S2	590
O=S(=O)(c1ccc2cc[nH]c2c1)N1CCC[C@@H]1CCN1CCC(c2c[nH]c3cnccc23)CC1	1020
COc1cc2nc(NCCn3cccn3)nc(NCCc3ccccc3)c2cc1OC	280
O=C(Nc1cc(C(F)(F)F)ccc1Cl)c1ccc(Cn2cc(Br)cn2)cc1	1350
Cc1ccc(C(=O)Nc2ccc(C)c(OC3CCN(CCC(C)C)C3)c2)cc1 (stereo not drawn)	790
CCC[C@@H]([C@@H](CC1CCC(C)CC1)C(=O)N[C@@H](CCCCNC(=O)c1ccccn1)C(=O)Nc1nccs1)N(O)C=O (stereo partly drawn)	50
Cc1c(-c2ccccc2)ccc2[nH]cc(CC#N)c12	700
N[C@@H](CCNCc1ccc(-c2cccnc2)cc1)Cc1ccc(F)c(F)c1	800
c1ccc(CCNCc2ccc(-c3cccc(CNc4ccc5ncccc5c4)c3)cc2)cc1	930
O=C(Nc1ccc(OC2CCN(Cc3ccc(F)cc3)C2)c(Cl)c1)c1ccoc1 (stereo not drawn)	940
N#CC(NC(=O)C=Cc1ccccc1)c1ccccc1 (stereo not drawn)	180
Cc1cc(NN=Cc2cccc(F)c2)c2ccc(F)cc2n1	230
C[C@H](Cc1ccc(OCCCOc2ccc(C[C@@H](C)NC[C@H](O)c3cccc(Cl)c3)cc2)cc1)NC[C@H](O)c1cccc(Cl)c1	780
Cc1ccc2nc3c(cc(C(=O)NCc4ccccc4)c(=N)n3CCCn3ccnc3)c(=O)n2c1	990
OC(CNCc1ccccc1)c1cc(OCc2ccccc2)cc(OCc2ccccc2)c1 (stereo not drawn)	1000
COc1cc(C)nc2ccc(NC(=O)COCC(=O)Nc3ccc4nc(C)cc(OC)c4c3)cc12	920
COC(=O)c1cc2cccc(NC[C@@H](C)NC[C@H](O)c3cccc(Cl)c3)c2[nH]1	630
CC(=O)N(C)C1CCN(Cc2cccc(-c3ccc(-c4nc5ccc(C(F)(F)F)cc5[nH]4)cc3)c2)C1 (stereo not drawn)	560
CCOc1cc(C(=O)N[C@@H](Cc2ccccc2)[C@H](O)CNCc2cc(OC)cc(OC)c2)cc(N2CCCS2(=O)=O)c1	750
